In patent publication US12325703B2, “Fused ring compound as FGFR and VEGFR dual inhibitor” (CGENETECH (SUZHOU, CHINA) CO., LTD., priority 2019, dated 2025):

Tests used:
[1] = biological target: T1, human VEGFR2 (Homo sapiens, UniProt P35968); assay: 33P isotope-labeled kinase activity test (Reaction Biology Corp), VEGFR2; type: biochemical; settings: 33P-ATP 20 μM, kinase 1 nM, 120 min room temperature
T1 construct: purchased Invitrogen PR5992C
Procedure: (§1) The IC50 value was determined using ^33P isotope-labeled kinase activity test (Reaction Biology Corp) to evaluate the inhibitory ability of the compounds to be tested on human FGFR1, FGFR2 and VEGFR2.
(§2) Buffer conditions: 20 mM Hepes (pH 7.5), 10 mM MgCl2, 1 mM EGTA, 0.02% Brij35, 0.02 mg/mL BSA, 0.1 mM Na3VO4, 2 mM DTT, 1% DMSO.
(§3) Test steps: At room temperature, the compounds to be tested were dissolved in DMSO to prepare a 10 mM solution for use. The substrate was dissolved in the newly-prepared buffer, and the kinase to be tested was added thereto and mixed well. The DMSO solution in which the compounds to be tested were dissolved was added to the above-mentioned homogeneous reaction solution using acoustic technology (Echo 550). […] After incubating for 15 minutes, to the reaction solution was added ^33P-ATP (activity: 0.01 μCi/μL, with corresponding concentration listed in Table 10) to start the reaction. […] The kinase activity data was expressed by comparing the kinase activity of the groups containing the compounds to be tested with that of the blank group (containing only DMSO). The IC50 value was obtained by curve fitting using Prism4 software (GraphPad), and the experimental results were shown in Table 11.

[2] = biological target: T2, human FGFR1 (Homo sapiens, UniProt P11362); assay: 33P isotope-labeled kinase activity test (Reaction Biology Corp), FGFR1; type: biochemical; settings: 33P-ATP 5 μM, kinase 1.5 nM, 120 min room temperature
T2 construct: purchased Invitrogen PV3146
Procedure: as §1, §2, §3

[3] = biological target: T3, human FGFR2 (Homo sapiens, UniProt P21802); assay: 33P isotope-labeled kinase activity test (Reaction Biology Corp), FGFR2; type: biochemical; settings: 33P-ATP 5 μM, kinase 0.45 nM, 120 min room temperature
T3 construct: purchased Invitrogen PV3368
Procedure: as §1, §2, §3

[4] = biological target: T4, hERG potassium ion channel (Homo sapiens, UniProt Q12809); assay: Inhibition test of hERG potassium ion channel, full-automatic patch clamp (Qpatch), CHO-hERG cells; type: cell-based; settings: highest test concentration 40 μM
T4 construct: expressed in transfected cells; host or cells: CHO-hERG cells
Procedure: To detect the effect of the compounds of the present disclosure to be tested on the hERG potassium ion channel using a full-automatic patch clamp method.
1.1 CHO-hERG cells were cultured in a 175 cm^2 culture bottle, and once the cells grow to a density of 60% to 80%, the culture solution was removed; and the cells were washed with 7 mL of PBS (Phosphate Buffered Saline), and then digested by adding 3 mL of Detachin.
1.2 After the digestion was complete, 7 mL of culture solution was added for neutralization, and the mixture was centrifuged; and the supernatant was pipetted out, and then 5 mL of culture solution was added for resuspension to ensure that the cells reached a density of 2 to 5×10^6/mL.
The single-cell high-impedance sealing and the whole-cell mode formation process were all automatically completed by the Qpatch instrument. After the whole-cell recording mode was obtained, the cells were clamped at −80 millivolt; before a 5 second +40 millivolt depolarization stimulus was given, a 50 millisecond −50 millivolt pre-voltage was given, then repolarized to −50 millivolt for 5 seconds, and then returned to −80 millivolt. Such a voltage stimulus was applied every 15 seconds and recorded for 2 minutes, and then extracellular fluid was given and recorded for 5 minutes, followed by drug administration. […]
The experimental data was analyzed by GraphPad Prism 5.0 software. […]

[5] = test system: human gastric cancer SNU-16 cells expressing FGFR2; assay: Cell activity (proliferation) test of gastric cancer cell line SNU-16, CellTiter-Glo; type: cell-based; settings: inhibition of proliferation
Procedure: To test the inhibitory effect of the compounds on the proliferation of human gastric cancer SNU-16 cells expressing FGFR2.
The compounds used in the test were subjected to 3-fold concentration dilution, the concentration starting from 10 μM and subjected to […], resulting in 9 concentrations: 10 μM, 2.50 μM, 0.62 μM, 0.156 μM, 39.1 nM, 9.8 nM, 2.4 nM, 0.61 nM, and 0.15 nM.
(1) Promega CellTiter-Glo luminescent cell viability assay kit (Promega-G7573).
(2) 2104 EnVision multi-tag reader, PerkinElmer.
The inhibition rate of different doses of the compounds would be calculated in the Excel file, and the IC50 data was obtained by parametric curve fitting (GraphPad Software).

[6] = test system: human gastric cancer SNU-16 subcutaneous xenograft tumor; assay: Anti-tumor activity in mouse subcutaneous xenograft tumor model of human gastric cancer SNU-16; type: in vivo, nude mice; settings: day 25, SNU-16 xenograft
Procedure: To determine the anti-tumor effect of the compounds of the present disclosure in a mouse subcutaneous xenograft tumor model of human gastric cancer SNU-16
preparation of tumor tissues: SNU-16 cells were routinely cultured in an RPMI-1640 culture medium containing 10% fetal bovine serum under the conditions of 5% CO2, 37° C. and saturated humidity.
Each animal was inoculated with 200 μL (8×10^6 cells/mouse) to establish a SNU-16 xenograft model. The animal status was observed regularly, and the tumor diameter was measured with an electronic vernier caliper. The data was input into an Excel spreadsheet to calculate tumor volume and monitor tumor growth.
3) The tumor diameter was measured twice a week to calculate the tumor volume, and the animal body weight was weighted and recorded.
The calculation formula of tumor volume (TV) was: TV (mm^3)=1×w^2/2, where 1 represented the long diameter of the tumor (mm); w represented the short diameter of the tumor (mm).
The anti-tumor efficacy of the compounds was evaluated by TGI (%) or relative tumor proliferation rate T/C (%). […] The relative tumor volume (RTV) was calculated according to the results of the tumor measurement. The calculation formula was RTV=Vt/V0, where V0 was the tumor volume measured at the beginning of the grouping and administration (i.e., D0), and Vt was the tumor volume corresponding to a certain measurement in the mouse. […]

[7] = Pharmacokinetic study in mice, cassette intravenous injection and intragastric administration; type: in vivo; settings: mouse, plasma, Balb/c female mice; for Vd / AUC(0-t) / clearance / half-life: IV 0.2 mg/kg; for Vd: read-out: Apparent volume of distribution Vdss; for AUC(0-t): read-out: Area under the plasma concentration-time curve from time zero to 24 hours AUC0-24 h; for clearance: read-out: Clearance rate CL; for half-life: read-out: Half-life T1/2 (converted); for bioavailability: PO 1 mg/kg vs IV 0.2 mg/kg, read-out: Bioavailability F; for AUC / Cmax / Tmax: PO 1 mg/kg; for AUC: read-out: Area under the plasma concentration-time curve AUC; for Cmax: read-out: Peak concentration Cmax; for Tmax: read-out: Time to peak Tmax
Procedure: To evaluate the pharmacokinetic behavior of the compounds of the present disclosure after Cassette intravenous injection and intragastric administration, and to investigate the bioavailability thereof after intragastric administration.
Balb/c female mice aged 7 to 10 weeks were selected, and administered intravenously and orally with the doses of 0.2 mg/kg and 1 mg/kg, respectively. The mice were fasted for at least 12 hours before administration, and feeding was resumed after 4 hours of administration. The mice were free to drink water during the entire experiment. In this experiment, Cassette administration was used, and with regard to the intravenous injection group: an appropriate amount of each compound was weighed, and mixed with 5% DMSO/10% Solutol/85% Water for vortexing to prepare a 0.1 mg/mL of clear solution; the clear solution was filtered with a microporous membrane for later use; and with regard to the intragastric administration group: an appropriate amount of each compound was weighted, and mixed with 90% (25% HP-β-CD/10% Cremophor EL) with pH being adjusted to 4 to 5 to prepare a homogeneous suspension for later use. On the day of the experiment, the animals in the intravenous injection group were administrated with the corresponding compounds via tail vein single injection, with the administration volume of 2 mL/kg; and the animals in the oral group were administrated with the corresponding compounds by single intragastric administration, with the administration volume of 10 mL/kg. The body weight of the animals was weighed before administration, and the administration volume was calculated based on the body weight. The sample collection time was: 0.083 (injection group) h, 0.25 h, 0.5 h, 1 h, 2 h, 4 h, 8 h, and 24 h. Approximately 30 uL of whole blood was collected from the saphenous vein at each time point to prepare plasma for high performance liquid chromatography-tandem mass spectrometry (LC-MS/MS) to determine the concentration. All animals were euthanized by CO2 anesthesia after PK samples at the last time point were collected. The non-compartmental model of WinNonlin™ Version 6.3 (Pharsight, Mountain View, CA) pharmacokinetic software was used to process the plasma concentration, and the pharmacokinetic parameters were calculated using the linear logarithmic trapezoidal method.

T2 sequence (P11362 22-822): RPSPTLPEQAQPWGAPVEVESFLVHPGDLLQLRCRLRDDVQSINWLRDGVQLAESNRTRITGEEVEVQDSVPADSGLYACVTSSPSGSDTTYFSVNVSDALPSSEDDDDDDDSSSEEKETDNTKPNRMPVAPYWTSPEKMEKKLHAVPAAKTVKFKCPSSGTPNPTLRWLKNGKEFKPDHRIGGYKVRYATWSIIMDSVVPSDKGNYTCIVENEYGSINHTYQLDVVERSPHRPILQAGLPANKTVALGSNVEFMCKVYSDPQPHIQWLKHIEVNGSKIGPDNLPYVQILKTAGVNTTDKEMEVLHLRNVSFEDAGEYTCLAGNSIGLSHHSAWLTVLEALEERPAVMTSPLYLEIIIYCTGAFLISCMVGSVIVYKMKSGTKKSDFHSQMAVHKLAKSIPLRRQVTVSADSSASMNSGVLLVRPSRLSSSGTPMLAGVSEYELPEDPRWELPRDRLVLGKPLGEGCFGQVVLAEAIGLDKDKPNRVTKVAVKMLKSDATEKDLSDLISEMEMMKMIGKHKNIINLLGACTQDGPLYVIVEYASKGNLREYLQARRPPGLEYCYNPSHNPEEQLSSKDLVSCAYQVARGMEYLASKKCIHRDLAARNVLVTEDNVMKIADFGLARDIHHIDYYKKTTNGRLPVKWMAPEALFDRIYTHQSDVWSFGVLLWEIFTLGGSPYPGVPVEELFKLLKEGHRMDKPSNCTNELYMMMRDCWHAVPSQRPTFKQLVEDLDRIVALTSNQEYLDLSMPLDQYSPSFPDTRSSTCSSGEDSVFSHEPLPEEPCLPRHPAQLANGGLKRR
T3 sequence (P21802 22-821): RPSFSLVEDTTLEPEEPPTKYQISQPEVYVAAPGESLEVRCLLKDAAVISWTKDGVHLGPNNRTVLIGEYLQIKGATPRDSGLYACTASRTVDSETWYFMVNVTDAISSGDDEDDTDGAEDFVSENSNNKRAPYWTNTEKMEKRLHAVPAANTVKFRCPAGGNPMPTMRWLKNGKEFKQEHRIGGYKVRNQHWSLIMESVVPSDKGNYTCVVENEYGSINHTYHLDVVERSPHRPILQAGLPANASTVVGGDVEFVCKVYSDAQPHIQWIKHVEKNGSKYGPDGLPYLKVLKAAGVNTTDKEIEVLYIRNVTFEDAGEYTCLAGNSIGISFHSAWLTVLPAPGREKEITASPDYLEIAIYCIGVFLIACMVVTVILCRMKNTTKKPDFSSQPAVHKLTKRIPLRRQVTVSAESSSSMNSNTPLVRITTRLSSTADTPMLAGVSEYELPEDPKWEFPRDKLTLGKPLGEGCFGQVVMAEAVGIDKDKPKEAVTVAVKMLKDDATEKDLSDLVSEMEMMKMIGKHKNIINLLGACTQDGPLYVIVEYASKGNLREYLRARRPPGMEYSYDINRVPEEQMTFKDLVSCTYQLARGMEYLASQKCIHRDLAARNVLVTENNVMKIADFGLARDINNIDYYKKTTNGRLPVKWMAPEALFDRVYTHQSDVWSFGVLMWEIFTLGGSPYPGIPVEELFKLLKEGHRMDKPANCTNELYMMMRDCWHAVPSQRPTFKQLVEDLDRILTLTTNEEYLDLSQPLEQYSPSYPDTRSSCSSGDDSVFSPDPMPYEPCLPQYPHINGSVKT
T4 sequence (Q12809 whole entry): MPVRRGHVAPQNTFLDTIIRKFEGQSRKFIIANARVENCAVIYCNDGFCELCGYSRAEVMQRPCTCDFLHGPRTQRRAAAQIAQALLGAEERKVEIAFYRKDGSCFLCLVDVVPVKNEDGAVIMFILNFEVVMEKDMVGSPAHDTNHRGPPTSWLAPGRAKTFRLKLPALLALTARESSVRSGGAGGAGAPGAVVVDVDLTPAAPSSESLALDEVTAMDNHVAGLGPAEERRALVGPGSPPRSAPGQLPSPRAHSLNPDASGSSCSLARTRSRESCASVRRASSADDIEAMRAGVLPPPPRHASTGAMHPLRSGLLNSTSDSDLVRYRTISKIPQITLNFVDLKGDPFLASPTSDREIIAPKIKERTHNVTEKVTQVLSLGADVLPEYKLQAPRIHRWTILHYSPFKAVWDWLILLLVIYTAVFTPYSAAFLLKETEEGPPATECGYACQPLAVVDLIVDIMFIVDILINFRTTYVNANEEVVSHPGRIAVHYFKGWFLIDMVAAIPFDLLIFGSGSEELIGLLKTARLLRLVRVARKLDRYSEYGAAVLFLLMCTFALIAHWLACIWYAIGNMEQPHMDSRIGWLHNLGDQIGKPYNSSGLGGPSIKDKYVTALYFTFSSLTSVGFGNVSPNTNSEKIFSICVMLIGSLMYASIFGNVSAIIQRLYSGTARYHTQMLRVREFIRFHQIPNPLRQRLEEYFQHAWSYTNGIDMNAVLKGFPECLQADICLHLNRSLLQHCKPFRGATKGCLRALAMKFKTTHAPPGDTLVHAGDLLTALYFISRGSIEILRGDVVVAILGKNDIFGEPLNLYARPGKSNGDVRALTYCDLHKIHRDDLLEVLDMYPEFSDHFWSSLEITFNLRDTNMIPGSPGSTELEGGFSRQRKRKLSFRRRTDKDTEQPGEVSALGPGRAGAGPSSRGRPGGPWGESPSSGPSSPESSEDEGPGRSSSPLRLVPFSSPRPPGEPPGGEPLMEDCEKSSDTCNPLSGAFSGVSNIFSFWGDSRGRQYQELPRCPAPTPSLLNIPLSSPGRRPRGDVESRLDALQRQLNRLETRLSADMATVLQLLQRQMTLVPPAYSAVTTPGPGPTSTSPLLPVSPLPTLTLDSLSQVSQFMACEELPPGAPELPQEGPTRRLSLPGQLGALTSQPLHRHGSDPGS
T1 sequence (P35968 20-1356): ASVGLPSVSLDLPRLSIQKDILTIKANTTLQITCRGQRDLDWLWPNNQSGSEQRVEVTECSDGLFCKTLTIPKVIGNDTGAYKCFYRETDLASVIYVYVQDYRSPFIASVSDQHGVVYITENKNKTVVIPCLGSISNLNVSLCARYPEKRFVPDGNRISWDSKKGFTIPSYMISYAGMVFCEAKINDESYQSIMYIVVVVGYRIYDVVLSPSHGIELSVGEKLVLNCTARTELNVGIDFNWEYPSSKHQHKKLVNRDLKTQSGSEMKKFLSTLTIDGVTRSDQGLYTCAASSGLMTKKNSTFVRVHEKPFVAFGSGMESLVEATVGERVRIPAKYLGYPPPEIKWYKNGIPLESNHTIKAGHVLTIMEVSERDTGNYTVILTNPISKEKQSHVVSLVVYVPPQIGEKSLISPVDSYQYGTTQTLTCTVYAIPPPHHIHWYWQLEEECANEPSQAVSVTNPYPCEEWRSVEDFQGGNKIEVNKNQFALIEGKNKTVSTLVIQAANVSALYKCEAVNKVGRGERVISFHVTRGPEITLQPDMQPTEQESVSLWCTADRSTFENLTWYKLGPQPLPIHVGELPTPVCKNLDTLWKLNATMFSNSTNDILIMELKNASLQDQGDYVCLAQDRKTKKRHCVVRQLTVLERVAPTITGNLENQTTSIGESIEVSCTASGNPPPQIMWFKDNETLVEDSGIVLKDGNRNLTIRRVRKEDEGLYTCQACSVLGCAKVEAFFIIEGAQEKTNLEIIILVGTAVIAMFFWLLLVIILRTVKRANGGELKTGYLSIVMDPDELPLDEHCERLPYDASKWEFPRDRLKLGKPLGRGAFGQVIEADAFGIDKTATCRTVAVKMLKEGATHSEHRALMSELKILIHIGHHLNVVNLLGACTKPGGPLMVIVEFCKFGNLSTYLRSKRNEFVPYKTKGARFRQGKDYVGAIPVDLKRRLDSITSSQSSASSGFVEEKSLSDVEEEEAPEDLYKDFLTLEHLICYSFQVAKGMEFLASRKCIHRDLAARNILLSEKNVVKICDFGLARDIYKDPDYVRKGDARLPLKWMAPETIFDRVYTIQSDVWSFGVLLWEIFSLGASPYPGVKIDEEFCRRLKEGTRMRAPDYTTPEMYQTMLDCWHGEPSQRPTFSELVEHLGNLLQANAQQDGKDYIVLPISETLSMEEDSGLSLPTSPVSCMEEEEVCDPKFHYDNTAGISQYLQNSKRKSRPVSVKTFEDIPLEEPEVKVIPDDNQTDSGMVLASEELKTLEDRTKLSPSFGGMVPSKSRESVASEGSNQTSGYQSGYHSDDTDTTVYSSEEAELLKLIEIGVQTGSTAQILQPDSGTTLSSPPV

SMILES | IC50 [2] [nM] | IC50 [3] [nM] | IC50 [5] [nM] | Vd [7] [L/kg] | AUC(0-t) [7] [µM·h] | clearance [7] [mL/min/kg] | half-life [7] [h] | bioavailability [7] [%] | AUC [7] [µM·h] | Cmax [7] [nM] | Tmax [7] [h] | IC50 [1] [nM] | IC50 [4] [nM] | TGI (%) (tumor growth inhibition rate) on day 25 ([6]; PO 10 mpk/QD) | TGI (%) (tumor growth inhibition rate) on day 25 ([6]; PO 20/30/20 mpk/QD (30 mg/kg/day from day 9, 20 mg/kg/day from day 12))
Cn1cc(-c2ccc3c(c2)ncn3-c2cc(NS(=O)(=O)C3CC3)cc(-c3ccc(F)cc3F)c2)cn1 [reference compound] | 22.2 | 29.9 | – | – | – | – | – | – | – | – | – | 27.2 | – | – | –
Cn1cc(-c2cnc3c(-c4cc(NS(=O)(=O)C5CC5)cc(-c5ccc(F)cc5F)c4)cnn3c2)cn1 [Compound 5] | 9.34 | – | – | – | – | – | – | – | – | – | – | – | > 40000 | – | –
Cn1cc(-c2ccc3c(-c4cc(NS(=O)(=O)C5CC5)cc(-c5ccc(F)cc5F)c4)cnn3c2)cn1 [Compound 1] | 6.29 | – | – | 1.25 | 0.751 | 8.53 | 1.52 | 74 | 2.48 | 540 | 2 | – | – | – | –

More lines, main results first:

IC50 [2] [nM] | IC50 [3] [nM] | IC50 [5] [nM] | Vd [7] [L/kg] | AUC(0-t) [7] [µM·h] | clearance [7] [mL/min/kg] | half-life [7] [h] | bioavailability [7] [%] | AUC [7] [µM·h] | Cmax [7] [nM] | Tmax [7] [h] | SMILES | IC50 [1] [nM] | IC50 [4] [nM] | TGI (%) (tumor growth inhibition rate) on day 25 ([6]; PO 10 mpk/QD) | TGI (%) (tumor growth inhibition rate) on day 25 ([6]; PO 20/30/20 mpk/QD (30 mg/kg/day from day 9, 20 mg/kg/day from day 12))
2.86 | 2.66 | 16.3 | 1.2 | 1.14 | 6.53 | 2.12 | 43.8 | 1.98 | 388 | 2 | CCS(=O)(=O)Nc1cc(-c2ccc(F)cc2F)cc(-c2cnn3cc(-c4cnn(C)c4)ccc23)c1 [Compound 2] | – | > 40000 | 74 | –
1.63 | 2.5 | 14.5 | 1.4 | 0.548 | 12.6 | 1.17 | 73.2 | 1.9 | 463 | 2 | Cn1cc(-c2ccc3c(-c4cc(NS(C)(=O)=O)cc(-c5ccc(F)cc5F)c4)cnn3c2)cn1 [Compound 4] | – | – | – | 70
